Drawing on ChEMBL document CHEMBL5385881, “Design, synthesis, and discovery of Eudistomin Y derivatives as lysosome-targeted antiproliferation agents” (Eur J Med Chem, 2023), this text covers IC50 and Drug uptake for nine molecules.

In one data set the test system is MDA-MB-231. Nature of the data set: Cytotoxicity against human MDA-MB-231 cells assessed as cell inhibition measured after 72 hrs by MTT assay. In kind it is functional, cell-based. Conditions: MDA-MB-231, 72 h; call rule not given here.
The test system of another data set is SGC-7901. Nature of the data set: Cytotoxicity against human SGC-7901 cells assessed as cell inhibition measured after 72 hrs by MTT assay. In kind it is functional, cell-based. Conditions: SGC-7901, 72 h. Background: Formazan colour is commonly taken as a measure of viable cells.
The next data set relates to HepG2. Nature of the data set: Cytotoxicity against human HepG2 cells assessed as cell inhibition measured after 72 hrs by MTT assay. Conditions: HepG2, 72 h. In kind it is functional, cell-based.
The next data set concerns LS180. Nature of the data set: Cytotoxicity against human LS180 cells assessed as cell inhibition measured after 72 hrs by MTT assay. To be noted: LS180, 72 h. Type of data set: functional, cell-based.
The next data set concerns A549. Nature of the data set: Cytotoxicity against human A549 cells assessed as cell inhibition measured after 72 hrs by MTT assay. In kind it is functional, cell-based. To be noted: A549, 72 h.
A short description of data set [1]: Drug uptake in human MDA-MB-231 cells assessed as accumulation by measuring lysosome-specific fluorescent signals in presence of excess H1 at 1 uM incubated for 1 hrs by confocal laser-scanning microscopic analysis. In kind it is ADME, cell-based. Conditions: mda-mb-231, 1 h.

By IC50 is commonly meant the concentration needed to halve the response being measured.

On to `Cn1c2ccccc2c2ccnc(C(=O)c3ccc(OCc4ccccc4)cc3)c21`, for which the IC50 with MDA-MB-231 worked out at 19.8 µM; in the data set on SGC-7901, 40.2 µM; in the data set with HepG2 it was 62.4 µM; in the data set on LS180, 33.6 µM; with A549 it was 34.2 µM.
In the case of `O=C(c1ccccc1)c1nccc2c1[nH]c1ccccc12`, the IC50 with MDA-MB-231 came to 66.1 µM; in the data set on SGC-7901, 345 µM; in the data set on HepG2 it was 244 µM; in the data set on LS180, 258 µM; in the data set on A549, 74.3 µM.
As to `O=C(c1ccccc1)c1nccc2c3ccccc3n(Cc3cccc(F)c3)c12`, the IC50 came to 33.5 µM with MDA-MB-231; 28.1 µM in the data set on SGC-7901; 28.4 µM with HepG2; 20 µM with LS180; 31.6 µM in the data set on A549. Moreover, the Drug uptake result in data set [1] is reported as “Not Active”.
For the molecule `O=C(c1ccc(OCc2ccccc2)cc1)c1nccc2c1[nH]c1ccccc12`, the IC50 with MDA-MB-231 was 11.2 µM; in the data set with SGC-7901 it was 55.1 µM; with HepG2, 203 µM; in the data set on LS180, 20.7 µM; in the data set on A549, 15.6 µM.
For `Cc1cccc(Cn2c3ccccc3c3ccnc(C(=O)c4ccccc4)c32)c1` the same measures were 56.5 µM, 25.4 µM, 31.8 µM, 19 µM and 33.6 µM.
For `O=c1[nH]cc(F)c(=O)[nH]1` [FLUOROURACIL], the IC50 in the data set on MDA-MB-231 is 67.5 µM; with SGC-7901 it was 13.1 µM; in the data set on LS180 it was 3.4 µM; with A549 it was 1.3 µM.
Turning to `O=C(c1ccc(O)cc1)c1nccc2c1[nH]c1ccccc12` [EUDISTOMIN Y1], the IC50 in the data set on MDA-MB-231 was 129 µM; with SGC-7901, 119 µM; in the data set on HepG2, 126 µM; with LS180 it was 89.8 µM; in the data set with A549, 71.9 µM.
Turning to `Cc1cccc(Cn2c3ccccc3c3ccnc(C(=O)c4ccc(O)cc4)c32)c1`, the IC50 in the data set with MDA-MB-231 turned out to be 65.6 µM; with SGC-7901 it was 27.5 µM; with HepG2, 38.8 µM; with LS180, 25.5 µM; with A549 it was 26.8 µM.
For `O=C(c1ccccc1)c1nccc2c3ccccc3n(Cc3ccc([N+](=O)[O-])cc3)c12` the same measures were 31.4 µM, 7.1 µM, 18.7 µM, 4.4 µM and 10.2 µM.
